# Assay results: paper PMC8222254, “Self-assembly of an anion receptor with metal-dependent kinase inhibition and potent in vitro anti-cancer properties” (Nature Communications, 2021)
# Values joined by “and” are separate entries in the source; they are usually repeats but may differ in a detail not shown here. Identical values can stand only once.
# Legend:
# Test in all cases: Kinase inhibition screen, cell-free 33P ATP assay at 10 μM
# Assay type in all cases: biochemical
# [1] = biological target: 140 purified human kinases (Homo sapiens, UniProt Q13627); conditions: DYRK1A
# In short: (§1)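 Radiometric ^33P ATP cell-free format with purified enzymes; both complexes run at 10 μM in duplicate, results plotted on a kinome map via HGNC symbols.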
# [2] = biological target: T1, 140 purified human kinases (Homo sapiens, UniProt Q9UKI8)
# T1 sequence (Q9UKI8 1-766): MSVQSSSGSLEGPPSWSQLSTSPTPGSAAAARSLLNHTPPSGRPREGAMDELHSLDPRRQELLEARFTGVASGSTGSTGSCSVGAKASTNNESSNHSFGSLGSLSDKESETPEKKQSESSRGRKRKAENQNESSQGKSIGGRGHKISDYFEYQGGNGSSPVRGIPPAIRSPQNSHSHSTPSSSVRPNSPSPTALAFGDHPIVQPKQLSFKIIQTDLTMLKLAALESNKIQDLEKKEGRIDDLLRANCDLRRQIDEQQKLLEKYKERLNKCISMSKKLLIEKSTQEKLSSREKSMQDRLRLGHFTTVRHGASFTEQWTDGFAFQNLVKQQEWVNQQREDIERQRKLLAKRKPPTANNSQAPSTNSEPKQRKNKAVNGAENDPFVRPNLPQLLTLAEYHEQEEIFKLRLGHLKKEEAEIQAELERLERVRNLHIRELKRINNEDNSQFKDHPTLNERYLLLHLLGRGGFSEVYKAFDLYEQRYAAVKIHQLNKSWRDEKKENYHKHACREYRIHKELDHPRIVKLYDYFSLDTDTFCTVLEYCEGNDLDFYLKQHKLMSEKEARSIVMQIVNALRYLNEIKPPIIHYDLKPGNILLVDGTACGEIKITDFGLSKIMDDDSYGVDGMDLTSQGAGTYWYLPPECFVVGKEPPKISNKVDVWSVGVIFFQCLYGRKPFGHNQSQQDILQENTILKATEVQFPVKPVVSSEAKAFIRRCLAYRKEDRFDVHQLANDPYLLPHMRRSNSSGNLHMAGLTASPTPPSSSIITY
# In short: as §1
# [3] = biological target: 140 purified human kinases (Homo sapiens, UniProt Q14680); conditions: MELK
# Sequence of 140 purified human kinases (Homo sapiens, UniProt Q14680) (Q14680 whole entry): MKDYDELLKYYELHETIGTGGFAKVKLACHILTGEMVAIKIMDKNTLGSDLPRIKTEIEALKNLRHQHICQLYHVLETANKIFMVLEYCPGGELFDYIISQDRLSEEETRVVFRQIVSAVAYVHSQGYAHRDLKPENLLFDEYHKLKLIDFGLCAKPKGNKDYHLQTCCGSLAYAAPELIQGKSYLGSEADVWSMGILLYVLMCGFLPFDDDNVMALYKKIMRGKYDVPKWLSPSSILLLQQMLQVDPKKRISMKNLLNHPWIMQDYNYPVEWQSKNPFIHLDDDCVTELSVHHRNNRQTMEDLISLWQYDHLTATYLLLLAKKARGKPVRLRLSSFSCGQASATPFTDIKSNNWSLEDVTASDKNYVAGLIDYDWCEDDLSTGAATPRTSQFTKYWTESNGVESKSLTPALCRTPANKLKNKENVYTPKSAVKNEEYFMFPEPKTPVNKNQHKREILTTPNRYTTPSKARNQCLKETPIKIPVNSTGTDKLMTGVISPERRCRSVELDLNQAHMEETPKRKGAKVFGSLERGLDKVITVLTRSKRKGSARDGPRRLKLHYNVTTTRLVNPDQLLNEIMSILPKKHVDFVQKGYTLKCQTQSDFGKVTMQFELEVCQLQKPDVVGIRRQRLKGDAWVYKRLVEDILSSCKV
# In short: as §1
# [4] = biological target: 140 purified human kinases (Homo sapiens, UniProt P49760)
# Sequence of 140 purified human kinases (Homo sapiens, UniProt P49760) (P49760 whole entry): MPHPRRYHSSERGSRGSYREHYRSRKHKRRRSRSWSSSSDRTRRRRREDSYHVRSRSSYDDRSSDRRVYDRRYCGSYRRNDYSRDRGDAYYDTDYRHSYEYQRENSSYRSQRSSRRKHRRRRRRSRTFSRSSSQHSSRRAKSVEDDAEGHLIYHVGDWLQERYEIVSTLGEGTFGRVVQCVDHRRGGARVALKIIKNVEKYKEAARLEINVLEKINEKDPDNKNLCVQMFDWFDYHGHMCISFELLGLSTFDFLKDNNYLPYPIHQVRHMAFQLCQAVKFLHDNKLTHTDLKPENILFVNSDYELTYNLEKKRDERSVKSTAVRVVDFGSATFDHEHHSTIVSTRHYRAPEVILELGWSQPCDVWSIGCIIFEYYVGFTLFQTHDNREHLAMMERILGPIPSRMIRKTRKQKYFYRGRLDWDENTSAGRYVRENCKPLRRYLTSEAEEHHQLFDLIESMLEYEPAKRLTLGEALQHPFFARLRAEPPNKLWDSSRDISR
# In short: as §1
# [5] = biological target: T2, 140 purified human kinases (Homo sapiens, UniProt Q9NZJ5)
# T2 sequence (Q9NZJ5 30-1116): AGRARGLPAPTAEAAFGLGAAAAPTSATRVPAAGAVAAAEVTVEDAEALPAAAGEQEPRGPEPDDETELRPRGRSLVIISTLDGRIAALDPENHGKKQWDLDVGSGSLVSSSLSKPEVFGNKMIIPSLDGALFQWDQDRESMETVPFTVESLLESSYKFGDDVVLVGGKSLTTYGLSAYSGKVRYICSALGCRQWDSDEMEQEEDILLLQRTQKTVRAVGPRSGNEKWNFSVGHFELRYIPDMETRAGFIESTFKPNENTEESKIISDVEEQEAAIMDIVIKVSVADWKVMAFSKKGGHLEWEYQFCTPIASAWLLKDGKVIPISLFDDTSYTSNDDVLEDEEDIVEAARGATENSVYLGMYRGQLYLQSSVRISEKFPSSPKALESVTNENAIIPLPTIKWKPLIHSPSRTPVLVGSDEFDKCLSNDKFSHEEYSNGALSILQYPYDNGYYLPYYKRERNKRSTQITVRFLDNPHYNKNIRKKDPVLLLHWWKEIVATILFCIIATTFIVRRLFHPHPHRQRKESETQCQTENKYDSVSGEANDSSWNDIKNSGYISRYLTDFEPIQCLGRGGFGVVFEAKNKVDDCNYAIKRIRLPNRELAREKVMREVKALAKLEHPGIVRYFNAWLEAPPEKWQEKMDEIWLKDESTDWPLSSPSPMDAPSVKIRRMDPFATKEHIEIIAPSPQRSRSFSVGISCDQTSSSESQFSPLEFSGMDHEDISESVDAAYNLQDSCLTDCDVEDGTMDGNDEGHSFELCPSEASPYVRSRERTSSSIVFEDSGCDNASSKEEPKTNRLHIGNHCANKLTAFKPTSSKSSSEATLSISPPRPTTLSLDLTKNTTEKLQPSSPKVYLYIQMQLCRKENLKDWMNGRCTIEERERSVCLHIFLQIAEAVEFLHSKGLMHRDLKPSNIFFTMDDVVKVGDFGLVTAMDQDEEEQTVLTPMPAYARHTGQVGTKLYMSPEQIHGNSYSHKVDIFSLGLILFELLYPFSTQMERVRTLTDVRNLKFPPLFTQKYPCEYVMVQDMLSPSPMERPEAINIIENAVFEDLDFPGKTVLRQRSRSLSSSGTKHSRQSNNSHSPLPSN
# In short: as §1
# [6] = biological target: 140 purified human kinases (Homo sapiens, UniProt P49137)
# Sequence of 140 purified human kinases (Homo sapiens, UniProt P49137) (P49137 whole entry): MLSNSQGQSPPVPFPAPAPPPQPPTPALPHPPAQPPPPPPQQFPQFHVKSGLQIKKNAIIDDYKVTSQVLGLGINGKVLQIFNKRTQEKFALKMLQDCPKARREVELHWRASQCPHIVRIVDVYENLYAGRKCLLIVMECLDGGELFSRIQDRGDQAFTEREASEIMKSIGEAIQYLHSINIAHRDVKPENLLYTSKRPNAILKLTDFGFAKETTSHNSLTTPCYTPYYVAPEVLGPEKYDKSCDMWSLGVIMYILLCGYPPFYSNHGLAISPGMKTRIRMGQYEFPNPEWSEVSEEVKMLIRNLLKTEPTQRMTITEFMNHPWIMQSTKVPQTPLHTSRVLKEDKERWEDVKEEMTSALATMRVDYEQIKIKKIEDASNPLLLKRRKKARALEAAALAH
# In short: as §1
compound,measurement,setting,value
[Cu+2].[Cu+2].[Cu+2].c1ccc(-c2csc(NCCN(CCNc3nc(-c4ccccn4)cs3)CCNc3nc(-c4ccccn4)cs3)n2)nc1.c1ccc(-c2csc(NCCN(CCNc3nc(-c4ccccn4)cs3)CCNc3nc(-c4ccccn4)cs3)n2)nc1 [[L2Cu3]6+],% Inhibition Run 1,[1],18.5%
same,% Inhibition Run 2,[1],12.4%
same,"% Inhibition, Mean",[1],15%
same,mean % activity,[1],85%
same,% activity,[1]; Run 1,81.5%
same,% activity,[1]; Run 2,87.6%
same,"% Activation, Mean value",[2]; TLK1,16%
same,% Inhibition Run 1,[2]; TLK1,-7.2%
same,% Inhibition Run 2,[2]; TLK1,-24.2%
same,"% Inhibition, Mean",[2]; TLK1,-16%
same,mean % activity,[2]; TLK1,116%
same,% activity,"[2]; TLK1, Run 1",107.2%
same,% activity,"[2]; TLK1, Run 2",124.2%
same,% Activity Run 1,"[2]; TLK1, 10 µM",107.20%
same,% Activity Run 2,"[2]; TLK1, 10 µM",124.20%
same,% Inhibition Run 1,[3],38.7%
same,% Inhibition Run 2,[3],33.3%
same,"% Inhibition, Mean",[3],36%
same,mean % activity,[3],64%
same,% activity,[3]; Run 1,61.3%
same,% activity,[3]; Run 2,66.7%
same,"% Activation, Mean value",[4]; CLK2,3%
same,% Inhibition Run 1,[4]; CLK2,-9.8%
same,% Inhibition Run 2,[4]; CLK2,3.9%
same,"% Inhibition, Mean",[4]; CLK2,-3%
same,mean % activity,[4]; CLK2,103%
same,% activity,"[4]; CLK2, Run 1",109.8%
same,% activity,"[4]; CLK2, Run 2",96.1%
same,% Inhibition Run 1,[5]; EIF2AK3,39.9%
same,% Inhibition Run 2,[5]; EIF2AK3,30.4%
same,"% Inhibition, Mean",[5]; EIF2AK3,35%
same,mean % activity,[5]; EIF2AK3,65%
same,% activity,"[5]; EIF2AK3, Run 1",60.1%
same,% activity,"[5]; EIF2AK3, Run 2",69.6%
same,% Inhibition Run 1,[6]; MAPKAP-K2,97.8%
same,% Inhibition Run 2,[6]; MAPKAP-K2,98.1%
same,"% Inhibition, Mean",[6]; MAPKAP-K2,98%
same,mean % activity,[6]; MAPKAP-K2,2%
same,% activity,"[6]; MAPKAP-K2, Run 1",2.2%
same,% activity,"[6]; MAPKAP-K2, Run 2",1.9%
same,% Activity inhibition Mean,"[6]; MAPKAP-K2, 10 µM",97.9%
same,% Activity inhibition Run 1,"[6]; MAPKAP-K2, 10 µM",97.8%
same,% Activity inhibition Run 2,"[6]; MAPKAP-K2, 10 µM",98.1%
same,% Activity remaining Run 1,"[6]; MAPKAP-K2, 10 µM",2.20%
same,% Activity remaining Run 2,"[6]; MAPKAP-K2, 10 µM",1.90%
CC(=O)[O-].CC(=O)[O-].CC(=O)[O-].CC(=O)[O-].CC(=O)[O-].CC(=O)[O-].[Zn+2].[Zn+2].[Zn+2].c1ccc(-c2csc(NCCN(CCNc3nc(-c4ccccn4)cs3)CCNc3nc(-c4ccccn4)cs3)n2)nc1.c1ccc(-c2csc(NCCN(CCNc3nc(-c4ccccn4)cs3)CCNc3nc(-c4ccccn4)cs3)n2)nc1 [[L2Zn3]6+],"% Inhibition, Mean",[1],28%
same,"% Inhibition, Run 1 / Run 2",[1],34% and 22%
same,mean % activity,[1],72%
same,% activity,[1]; duplicate runs,67% and 78%
same,"% Inhibition, Mean",[2]; TLK1,-0.3%
same,mean % activity,[2]; TLK1,100%
same,% activity,"[2]; TLK1, duplicate runs",92% and 109%
same,"% Inhibition, Mean",[3],27%
same,"% Inhibition, Run 1 / Run 2",[3],35% and 19%
same,mean % activity,[3],73%
same,% activity,[3]; duplicate runs,65% and 81%
same,"% Inhibition, Mean",[4]; CLK2,44%
same,"% Inhibition, Run 1 / Run 2",[4]; CLK2,43% and 45%
same,mean % activity,[4]; CLK2,56%
same,% activity,"[4]; CLK2, duplicate runs",57% and 55%
same,"% Inhibition, Mean",[5]; EIF2AK3,37%
same,"% Inhibition, Run 1 / Run 2",[5]; EIF2AK3,45% and 29%
same,mean % activity,[5]; EIF2AK3,63%
same,% activity,"[5]; EIF2AK3, duplicate runs",55% and 71%
same,"% Inhibition, Mean",[6]; MAPKAP-K2,41%
same,"% Inhibition, Run 1 / Run 2",[6]; MAPKAP-K2,47% and 35%
same,mean % activity,[6]; MAPKAP-K2,60%
same,% activity,"[6]; MAPKAP-K2, duplicate runs",54% and 66%
